Source: ChEMBL document CHEMBL5500324, “The potential of marine-derived piperazine alkaloids: Sources, structures and bioactivities” (Eur J Med Chem, 2024)
In brackets after ≈: the same amount, converted by molar mass.

Assays:
[1] = tested on: FaDu; experiment: Growth inhibition of human FaDu cells; format: functional
[2] = tested on: SF-268; experiment: Growth inhibition of human SF-268 cells; format: functional
[3] = tested on: KM-20L2; experiment: Growth inhibition of human KM-20L2 cells; format: functional
[4] = tested on: P388; experiment: Anticancer activity against mouse P388 cells assessed as inhibition of cell growth; format: functional; settings: read-out: ED50 (the source's name)
[5] = tested on: SK-N-SH; experiment: Growth inhibition of human SK-N-SH cells; format: functional
[6] = tested on: BXPC-3; experiment: Growth inhibition of human BXPC-3 cells assessed as reduction in cell viability measured after 3 days by CCK-8 assay; format: functional; settings: BXPC-3, 72 h, time 3 day
[7] = tested on: DU-145; experiment: Growth inhibition of human DU-145 cells; format: functional
[8] = tested on: MCF7; experiment: Growth inhibition of human MCF7 cells; format: functional
[9] = tested on: NCI-H460; experiment: Growth inhibition of human NCI-H460 cells; format: functional
[10] = tested on: SW-1736; experiment: Growth inhibition of human SW-1736 cells; format: functional
[11] = tested on: MKN-1; experiment: Cytotoxicity against human MKN-1 cells assessed as reduction in cell viability; format: functional, cell-based
[12] = tested on: MCF7; experiment: Cytotoxicity against human MCF7 cells assessed as reduction in cell viability; format: functional, cell-based
[13] = tested on: HepG2; experiment: Cytotoxicity against human HepG2 cells assessed as reduction in cell viability incubated for 72 hrs by SRB assay; format: functional, cell-based; settings: HepG2, 72 h
[14] = tested on: SF-268; experiment: Cytotoxicity against human SF-268 cells assessed as reduction in cell viability incubated for 72 hrs by SRB assay; format: functional, cell-based; settings: SF-268, 72 h
[15] = tested on: NCI-H460; experiment: Cytotoxicity against human NCI-H460 cells assessed as reduction in cell growth incubated for 48 hrs by SRB assay; format: functional, cell-based; settings: NCI-H460, 48 h
[16] = tested on: U-937; experiment: Cytotoxicity against human U-937 cells assessed as reduction in cell viability incubated for 72 hrs by MTT assay; format: functional, cell-based; settings: U-937, 72 h
[17] = tested on: SF-268; experiment: Cytotoxicity against human SF-268 cells assessed as reduction in cell growth incubated for 48 hrs by SRB assay; format: functional, cell-based; settings: SF-268, 48 h
[18] = tested on: MCF7; experiment: Cytotoxicity against human MCF7 cells assessed as reduction in cell growth incubated for 48 hrs by SRB assay; format: functional, cell-based; settings: MCF7, 48 h
[19] = tested on: SF-268; experiment: Cytotoxicity against human SF-268 cells assessed as reduction in cell growth incubated for 72 hrs by SRB assay; format: functional, cell-based; settings: SF-268, 72 h
[20] = tested on: MCF7; experiment: Cytotoxicity against human MCF7 cells assessed as reduction in cell growth incubated for 72 hrs by SRB assay; format: functional, cell-based; settings: MCF7, 72 h
[21] = tested on: NCI-H460; experiment: Cytotoxicity against human NCI-H460 cells assessed as reduction in cell growth incubated for 72 hrs by SRB assay; format: functional, cell-based; settings: NCI-H460, 72 h
[22] = Cytotoxicity against mouse FM3A tsFT210 cells assessed as inhibition of cell growth; format: functional, cell-based
[23] = tested on: HepG2; experiment: Cytotoxicity against human HepG2 cells assessed as reduction in cell growth incubated for 48 hrs by SRB assay; format: functional, cell-based; settings: HepG2, 48 h
[24] = tested on: HEK293; experiment: Cytotoxicity against HEK293 cells assessed as cell growth inhibition; format: functional, cell-based; settings: Homo sapiens
[25] = tested on: U-937; experiment: Cytotoxicity against human U-937 cells assessed as reduction in cell viability; format: functional, cell-based
[26] = tested on: HepG2; experiment: Cytotoxicity against human HepG2 cells assessed as reduction in cell growth incubated for 72 hrs by SRB assay; format: functional, cell-based; settings: HepG2, 72 h
[27] = tested on: PC-3; experiment: Cytotoxicity against human PC-3 cells assessed as reduction in cell viability; format: functional, cell-based
[28] = tested on: HCT-116; experiment: Cytotoxicity against human HCT-116 cells assessed as reduction in cell viability incubated for 24 hrs by MTT assay; format: functional, cell-based; settings: HCT-116, 24 h
[29] = tested on: RKO; experiment: Cytotoxicity against human RKO cells assessed as inhibition of cell growth measured after 48 hrs by MTT assay; format: functional, cell-based
[30] = tested on: HCT-116; experiment: Cytotoxicity against human HCT-116 cells assessed as reduction in cell viability incubated for 72 hrs by MTT assay; format: functional, cell-based; settings: HCT-116, 72 h
[31] = tested on: PC-3; experiment: Cytotoxicity against human PC-3 cells assessed as reduction in cell viability measured after 72 hrs by MTT assay; format: functional, cell-based; settings: PC-3, 72 h
[32] = tested on: L1210; experiment: Cytotoxicity against mouse L1210 cells assessed as reduction in cell growth; format: functional; settings: read-out: ED50 (the source's name)
[33] = tested on: HepG2; experiment: Cytotoxicity against human HepG2 cells; format: functional, cell-based
[34] = tested on: HeLa; experiment: Cytotoxicity against human HeLa cells; format: functional, cell-based
[35] = tested on: MCF7; experiment: Cytotoxicity against human MCF7 cells; format: functional, cell-based
[36] = tested on: HCT-116; experiment: Cytotoxicity against human HCT-116 cells; format: functional, cell-based
[37] = tested on: HEp-2; experiment: Cytotoxicity against human HEp-2 cells assessed as reduction in cell growth; format: functional, cell-based

Q: Which GI50 [1] does the source give for CN1C(=O)N[C@H]2[C@@H]3NC(=O)c4ccc(Br)n4[C@@H]3C[C@]21O [AGELASTATIN A] here?
A: 0.24 µg/mL (≈ 0.703 µM)

Q: What about the GI50 [2] of the same molecule?
A: 0.038 µg/mL (≈ 0.111 µM)

Q: What about the GI50 [3] of the same molecule?
A: 0.036 µg/mL (≈ 0.106 µM)

Q: And the EC50 [4]?
A: 0.052 µg/mL (≈ 0.152 µM)

Q: And the GI50 [5]?
A: 0.042 µg/mL (≈ 0.123 µM)

Q: And the GI50 [6]?
A: 0.089 µg/mL (≈ 0.261 µM)

Q: And the GI50 [7]?
A: 0.056 µg/mL (≈ 0.164 µM)

Q: What about the GI50 [8] of the same molecule?
A: 0.033 µg/mL (≈ 0.0967 µM)

Q: And the GI50 [9]?
A: 0.036 µg/mL (≈ 0.106 µM)

Q: What about the GI50 [10] of the same molecule?
A: 0.12 µg/mL (≈ 0.352 µM)

Q: Which results are given for CO[C@H]1c2c([nH]c3ccccc23)[C@H](C=C(C)C)N2C(=O)[C@@H]3CCCN3C(=O)[C@@]12O?
A: IC50 [11]: 20700 nM; IC50 [12]: 10800 nM

Q: For C=CC(C)(C)c1[nH]c2ccccc2c1/C=C1\NC(=O)[C@@]2(CC[C@@]3(O)c4cc(OC)cc(O)c4C(=O)c4c(O)cc(C)c2c43)NC1=O, which IC50 [13] is on record?
A: 15000 nM

Q: What about the IC50 [14] of the same molecule?
A: 12500 nM

Q: For CN1C(=O)[C@]23CC4=CC=C[C@H](O)[C@H]4N2C(=O)[C@@]1(CO)SS3 [GLIOTOXIN], which IC50 [15] is on record?
A: 240 nM

Q: What about the IC50 [16] of the same molecule?
A: 520 nM

Q: And the IC50 [17]?
A: 240 nM

Q: What about the IC50 [18] of the same molecule?
A: 80 nM

Q: And the IC50 [19]?
A: 240 nM

Q: And the IC50 [20]?
A: 80 nM

Q: And the IC50 [21]?
A: 210 nM

Q: What about the IC50 [22] of the same molecule?
A: 0.15 µg/mL (≈ 0.46 µM)

Q: What about the IC50 [23] of the same molecule?
A: 210 nM

Q: What about the IC50 [24] of the same molecule?
A: 1580 nM

Q: And the IC50 [25]?
A: 200 nM

Q: What about the IC50 [26] of the same molecule?
A: 240 nM

Q: And the IC50 [27]?
A: 390 nM

Q: And the IC50 [28]?
A: 1240 nM

Q: And the IC50 [29]?
A: 800 nM

Q: What about the IC50 [30] of the same molecule?
A: 410 nM

Q: And the IC50 [31]?
A: 15900 nM

Q: With CN1C[C@H](c2c[nH]c3cc(Br)ccc23)NC[C@H]1c1c[nH]c2cc(Br)ccc12 as the molecule, how does the EC50 [32] read?
A: 10 µg/mL (≈ 20.5 µM)

Q: Which results are given for CC(C)/C=C1\NC(=O)[C@H](CCC(N)=O)n2c1nc1ccccc1c2=O [AURANTIOMIDE C]?
A: IC50 [33]: 23.9 µg/mL (≈ 70.3 µM); IC50 [34]: 18.5 µg/mL (≈ 54.3 µM); IC50 [35]: 20.5 µg/mL (≈ 60.2 µM); IC50 [36]: 9.51 µg/mL (≈ 27.9 µM); IC50 [37]: 37.6 µg/mL (≈ 111 µM)
